Experimental data published in US5968907A (priority 1997, dated 1999).

Columns and labels:
[1] = target: CFA I pili (Escherichia coli, UniProt P0CK93+P25734); test: biochemical; details: read-out: inhibition of CFA I pili binding to glycophorin
[2] = target: heat-labile enterotoxin from E. coli (Escherichia coli, UniProt P0CK94); type: binding; details: at the concentration employed in the assay
[3] = target: cholera toxin (Vibrio cholerae serotype O1, UniProt P01556); test: biochemical; details: read-out: inhibition of binding of cholera toxin to ganglioside GD1b
Sequence of cholera toxin (P01556 22-124 limits assumed): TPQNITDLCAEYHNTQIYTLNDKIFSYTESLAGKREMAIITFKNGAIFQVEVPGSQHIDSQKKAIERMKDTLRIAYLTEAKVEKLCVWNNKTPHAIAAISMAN

Sequence of CFA I pili (P0CK93 24-170): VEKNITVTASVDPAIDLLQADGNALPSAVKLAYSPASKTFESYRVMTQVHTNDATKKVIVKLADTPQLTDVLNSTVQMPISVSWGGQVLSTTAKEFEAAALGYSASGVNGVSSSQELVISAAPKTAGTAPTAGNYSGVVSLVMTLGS
Sequence of CFA I pili (P25734 23-360): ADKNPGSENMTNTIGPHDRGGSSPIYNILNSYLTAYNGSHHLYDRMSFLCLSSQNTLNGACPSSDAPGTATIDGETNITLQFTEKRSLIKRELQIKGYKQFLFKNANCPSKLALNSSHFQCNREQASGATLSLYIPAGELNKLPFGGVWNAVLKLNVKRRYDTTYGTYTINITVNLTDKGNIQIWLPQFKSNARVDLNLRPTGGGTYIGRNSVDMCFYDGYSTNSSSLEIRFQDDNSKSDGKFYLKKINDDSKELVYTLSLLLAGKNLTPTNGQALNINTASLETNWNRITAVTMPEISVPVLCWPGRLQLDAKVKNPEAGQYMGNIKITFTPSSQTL
Sequence of heat-labile enterotoxin from E. coli (P0CK94 whole entry, looked up): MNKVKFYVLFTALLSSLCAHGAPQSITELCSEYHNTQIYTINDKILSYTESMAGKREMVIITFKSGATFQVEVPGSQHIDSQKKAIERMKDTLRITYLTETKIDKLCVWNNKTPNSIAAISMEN

Row | Structure (SMILES) | inhibition at 1000 µg/mL [1] | inhibition of binding of heat-labile enterotoxin to ganglioside GD1b [2] | inhibition at 1000 µg/mL [3]
1 | NC1CCCCC1S[C@@H]1O[C@H](CO)[C@H](O)[C@H](O)[C@H]1O (stereo partly drawn) [Example B2, 2-Aminocyclohex-1-yl 1-Thio-β-D-galactopyranoside] | 13 to 71% | at least 20% | –
2 | O=C(O)[C@H](Cc1c[nH]cn1)NC1CCCCC(S[C@@H]2O[C@H](CO)[C@H](O)[C@H](O)[C@H]2O)C1 (stereo partly drawn) [Example H5, Nα-[3-(1-Thio-β-D-galactopyranosyl)cyclohept-1-yl]-L-histidine] | 13 to 71% | – | < 20%
3 | CC(CC(C)S[C@@H]1O[C@H](CO)[C@H](O)[C@H](O)[C@H]1O)N[C@@H](Cc1c[nH]cn1)C(=O)O (stereo partly drawn) [Example H8, Nα-[4-(1-Thio-β-D-galactopyranosyl)pent-2-yl]-L-histidine] | 13 to 71% | – | < 20%
4 | CC1(C)CCC(N[C@@H](Cc2c[nH]cn2)C(=O)O)CC1S[C@@H]1O[C@H](CO)[C@H](O)[C@H](O)[C@H]1O (stereo partly drawn) [Example H9, Nα-[4,4-Dimethyl-3-(1-thio-β-D-galactopyranosyl)-cyclohex-1-yl]-L-histidine] | 13 to 71% | – | < 20%
5 | O=C(O)[C@H](Cc1c[nH]cn1)NC1CCCC(S[C@@H]2O[C@H](CO)[C@H](O)[C@H](O)[C@H]2O)C1 (stereo partly drawn) [Example H10, Nα-[3-(1-Thio-β-D-galactopyranosyl)cyclohex-1-yl]-L-histidine] | 13 to 71% | – | < 20%
6 | O=C(O)[C@H](Cc1c[nH]c2ccccc12)NC1CCCC1S[C@@H]1O[C@H](CO)[C@H](O)[C@H](O)[C@H]1O (stereo partly drawn) [Example I1, Nα-[2-(1-Thio-β-D-galactopyranosyl)cyclopent-1-yl]-L-tryptophan] | 13 to 71% | – | ≥ 20%
7 | O=C(O)[C@H](Cc1c[nH]c2ccccc12)NC1CCCCC1S[C@@H]1O[C@H](CO)[C@H](O)[C@H](O)[C@H]1O (stereo partly drawn) [Example I2, Nα-[2-(1-Thio-β-D-galactopyranosyl)cyclohex-1-yl]-L-tryptophan] | 13 to 71% | at least 20% | < 20%
8 | CC1(C)CCC(N[C@@H](CCCNC(=N)N)C(=O)O)CC1S[C@@H]1O[C@H](CO)[C@H](O)[C@H](O)[C@H]1O (stereo partly drawn) [Example J9, Nα-[4,4-Dimethyl-3-(1-thio-β-D-galactopyranosyl)-cyclohex-1-yl]-L-arginine] | 13 to 71% | – | < 20%
